# Experimental data: patent US11401271B2, “Fused heterocyclic compound, pyrazole-ring-containing fused heterocyclic compound, agricultural composition containing thereof, and method of using the composition” (SOUTH CHINA AGRICULTURAL UNIVERSITY, priority 2017, dated 2022)
# Where two headings read alike, the source gives them in different places.
# How the values were obtained:
# Assay in all cases: whole plant or invertebrate
# Format in all cases: in vivo
# Aphis craccivora = settings: Aphis craccivora, read-out: Aphis craccivora Mortality (%) 500 ppm
# Method: (3) Insecticidal Activity on Aphid Adults.
# Aphid is a homoptera pest with a piercing-sucking mouthpart and is a common vegetable pest. Aphis craccivora were taken as test objects and tested by using an impregnation method.
# Operation process: Samples were weighed accurately, and respectively added with 200 μL of dimethyl sulfoxide to prepare 10 g/L mother liquor which was diluted into a concentration of 500 ppm with an aqueous solution containing 0.05% of Tween-80 during the test. After the wingless Aphis craccivora adults stably sucked on bean sprouts, the wingless Aphis craccivora adults together with the bean sprouts were immersed into a liquid medicine with a concentration of 500 ppm, taken out after 5 seconds, air-dried naturally, transferred into a clean vessel, and fed at a constant temperature of 23° C. Each concentration was repeated 3 times, and an aqueous solution containing 0.05% of Tween-80 was used as a control group. After being treated for 24 hours, a number of dead Aphis craccivora was counted, and a mortality (%) was calculated according to a formula that mortality (%)=(number of live Aphis craccivora in the control group−number of treated live Aphis craccivora)/number of live Aphis craccivora in the control group*100%.
# Plutella xylostella = settings: Plutella xylostella, read-out: Plutella xylostella Mortality (%) 500 ppm
# Method: (1) Insecticidal Activity on 2nd-Instar Larvae of Plutella xylostella.
# Plutella xylostella (L.) is a lepidoptera pest with a chewing mouthpart and is a common vegetable pest. The 2nd-instar larvae of Plutella xylostella were used as test objects and tested by using a leaf immersion feeding method.
# (§1) Operation process: Samples were weighed accurately, and respectively added with 200 μL of dimethyl sulfoxide to prepare 10 g/L mother liquor which was diluted into a concentration of 500 ppm with an aqueous solution containing 0.05% of Tween-80 during the test. A hole puncher with a diameter of 1.0 cm was used to make cleaned cabbage leaves into leaf discs. The leaf discs were immersed in a liquid medicine, taken out after 5 seconds, air-dried naturally, and transferred into a clean vessel. About 35 2nd-instar larvae of Plutella xylostella were put into the vessel and fed at a constant temperature of 28° C. Each concentration was repeated 3 times, and an aqueous solution containing 0.05% of Tween-80 was used as a control group. After being treated for 24 hours, a number of dead Plutella xylostella was counted, and a mortality (%) was calculated according to a formula that mortality (%)=(number of live larvae in the control group−number of treated live larvae)/number of live larvae in the control group*100%.
# Spodoptera exigua = settings: Spodoptera exigua, read-out: Spodoptera exigua Mortality (%) 500 ppm
# Method: (2) Insecticidal Activity on 2nd-Instar Larvae of Spodoptera exigua.
# Spodoptera exigua is a lepidoptera pest with a chewing mouthpart and is a common vegetable pest. The 2nd-instar larvae of Spodoptera exigua were used as test objects and tested by using a leaf immersion feeding method.
# as §1, with “μL,” for “μL”, “2nd -instar” for “2nd-instar”, “Spodoptera exigua” for “Plutella xylostella”, “group −number” for “group−number”, “group * 100%.” for “group*100%.”
# Solenopsis invicta = settings: Solenopsis invicta, water test tube poison-feeding
# Method: (4) Insecticidal Activity on Solenopsis invicta.
# As a hymenoptera pests and a social insect, Solenopsis invicta is one of the most destructive invasive organisms. Solenopsis invicta were used as test objects and tested by using a water test tube poison-feeding method.
# Operation process: Samples were weighed accurately, and respectively added with 200 μL of dimethyl sulfoxide to prepare 10 g/L mother liquor which was diluted into a concentration of 100 ppm with a mixed aqueous solution containing 0.05% of Tween-80 and 5% of honey during the test. […] The raising test tube was placed in a raising box horizontally, and a small amount of ham sausages were added to the raising test tube as food to raise the Solenopsis invicta at a constant temperature of 25° C. After being treated for 24 hours and 72 hours, a number of live Solenopsis invicta and a number of dead Solenopsis invicta were counted, and a mortality (%) was calculated according to a formula that mortality (%)=(number of live Solenopsis invicta in the control group−number of treated live Solenopsis invicta)/number of live Solenopsis invicta in the control group*100%.
# [1] = 24 h, read-out: Solenopsis invicta Mortality (%) 100 ppm 24 h, 100 ppm, 24 h
# [2] = 72 h, read-out: Solenopsis invicta Mortality (%) 100 ppm 72 h, 100 ppm, 72 h
Compound,"mortality at 500 ppm (Aphis craccivora; 500 ppm, wingless adults, impregnation method, 24 hours)","mortality at 500 ppm (Plutella xylostella; 500 ppm, 2nd-instar larvae, leaf immersion feeding)","mortality at 500 ppm (Spodoptera exigua; 500 ppm, 2nd-instar larvae, leaf immersion feeding, 24 hours)","mortality at 100 ppm (Solenopsis invicta; 24 h, 100 ppm, 24 h, read-out: Solenopsis invicta Mortality (%) 100 ppm 24 h)","mortality at 100 ppm (Solenopsis invicta; 72 h, 100 ppm, 72 h, read-out: Solenopsis invicta Mortality (%) 100 ppm 72 h)",mortality at 500 ppm (Aphis craccivora; 24 h),mortality at 500 ppm (Plutella xylostella),mortality at 500 ppm (Spodoptera exigua; 24 h),mortality at 100 ppm (Solenopsis invicta; [1]),mortality at 100 ppm (Solenopsis invicta; [2])
COC(=O)Nc1cc2n(n1)-c1cnccc1C(F)(CC(F)(F)F)N2 (stereo not shown) [Compound A40],100%,96%,100%,20%,97%,–,–,–,–,–
CNC(=O)Nc1cc2n(n1)-c1cnccc1C(F)(CC(F)(F)F)N2 (stereo not shown) [Compound A41],–,–,–,–,–,100%,100%,100%,24%,100%
CS(=O)(=O)Nc1cc2n(n1)-c1cnccc1C(F)(CC(F)(F)F)N2 (stereo not shown) [Compound A42],–,–,–,–,–,100%,100%,100%,44%,100%
C=CC1(CCl)Nc2c(Br)c(C#N)nn2-c2c(Cl)cc(C(F)(F)F)cc21 (stereo not shown) [Compound C5],–,–,–,–,–,100%,100%,100%,34%,100%
C=CC1(CC(F)(F)F)Nc2c(Br)c(C#N)nn2-c2c(Cl)cc(C(F)(F)F)cc21 (stereo not shown) [Compound C6],–,–,–,–,–,100%,100%,100%,44%,100%
C=CC1(C(F)(F)F)Nc2c(Br)c(C#N)nn2-c2c(Cl)cc(C(F)(F)F)cc21 (stereo not shown) [Compound C7],–,–,–,–,–,100%,100%,100%,38%,100%
C=CC1Nc2c(Br)c(C#N)nn2-c2c(Cl)cc(C(F)(F)F)cc21 (stereo not shown) [Compound C8],–,–,–,–,–,95%,91%,85%,36%,92%
C=CC1(C(F)(F)F)Nc2c(-c3ccccc3C(F)(F)F)c(C#N)nn2-c2c(Cl)cc(C(F)(F)F)cc21 (stereo not shown) [Compound C11],–,–,–,–,–,100%,100%,100%,46%,100%
C=CC1(C(F)(F)F)Nc2c(-c3cc(C)oc3C)c(C#N)nn2-c2c(Cl)cc(C(F)(F)F)cc21 (stereo not shown) [Compound C12],–,–,–,–,–,100%,100%,91%,18%,95%
C=CC1Nc2c([S+]([O-])C(F)(F)F)c(C#N)nn2-c2c(Cl)cc(C(F)(F)F)cc21 (stereo not shown) [Compound C16],–,–,–,–,–,99%,100%,95%,23%,89%
C=CC1(CCl)Nc2c([S+]([O-])CC)c(C#N)nn2-c2c(Cl)cc(C(F)(F)F)cc21 (stereo not shown) [Compound C17],–,–,–,–,–,100%,88%,89%,15%,68%
C=CC1(CCl)Nc2c([S+](C)[O-])c(C(C)=O)nn2-c2c(Cl)cc(C(F)(F)F)cc21 (stereo not shown) [Compound C19],–,–,–,–,–,100%,90%,90%,18%,70%
C=CC1(CC#N)Nc2c([S+]([O-])CC)c(C#N)nn2-c2c(Cl)cc(C(F)(F)F)cc21 (stereo not shown) [Compound C21],–,–,–,–,–,100%,90%,95%,19%,99%
C=CC1(CC#N)Nc2c([S+](C)[O-])c(C#N)nn2-c2c(Cl)cc(C(F)(F)F)cc21 (stereo not shown) [Compound C22],–,–,–,–,–,89%,99%,94%,20%,70%
C=CC1(CC#N)Nc2c([S+](C)[O-])c(C(C)=O)nn2-c2c(Cl)cc(C(F)(F)F)cc21 (stereo not shown) [Compound C23],–,–,–,–,–,95%,86%,88%,18%,80%
CC(=O)c1nn2c(c1[S+](C)[O-])NC(CO)(CC#N)c1cc(C(F)(F)F)cc(Cl)c1-2 (stereo not shown) [Compound C27],–,–,–,–,–,100%,76%,86%,27%,86%
N#CCC1(CBr)Nc2c([S+]([O-])C(F)(F)F)c(C#N)nn2-c2c(Cl)cc(C(F)(F)F)cc21 (stereo not shown) [Compound C28],–,–,–,–,–,100%,100%,100%,30%,98%
CNC(=O)C1(CC#N)Nc2c([S+]([O-])C(F)(F)F)c(C#N)nn2-c2c(Cl)cc(C(F)(F)F)cc21 (stereo not shown) [Compound C33],–,–,–,–,–,100%,100%,100%,36%,100%
CN1CCN(C(=O)C2(CC#N)Nc3c([S+]([O-])C(F)(F)F)c(C#N)nn3-c3c(Cl)cc(C(F)(F)F)cc32)CC1 (stereo not shown) [Compound C34],–,–,–,–,–,100%,100%,100%,40%,100%
COC(=O)CC1(C(=O)OC)c2cc(C(F)(F)F)cc(Cl)c2-n2nc(C#N)c([S+]([O-])C(F)(F)F)c2N1C (stereo not shown) [Compound C39],–,–,–,–,–,98%,90%,100%,24%,87%
CC(=O)c1nn2c(c1[S+](C)[O-])NC(CBr)(CC#N)c1cc(C(F)(F)F)cc(Cl)c1-2 (stereo not shown) [Compound C41],–,–,–,–,–,100%,89%,94%,19%,90%
CNCC1(CC#N)Nc2c([S+](C)[O-])c(C(C)=O)nn2-c2c(Cl)cc(C(F)(F)F)cc21 (stereo not shown) [Compound C42],–,–,–,–,–,100%,91%,94%,20%,70%
COC(=O)C1(CC#N)Nc2c([S+](C)[O-])c(C(C)=O)nn2-c2c(Cl)cc(C(F)(F)F)cc21 (stereo not shown) [Compound C44],–,–,–,–,–,100%,90%,100%,36%,90%
